# Reference: patent US20210267973A1, “COMBINATION OF A TYPE II PROTEIN ARGININE […] INHIBITOR AND AN ICOS BINDING PROTEIN TO TREAT CANCER” (GLAXOSMITHKLINE INTELLECTUAL PROPERTY DEVELOPMENT LIMITED, priority 2018, published 2021)
# Columns and labels:
# [1] = test system: 19 enzymes on the methyltransferase selectivity panel (Type I and Type II PRMTs and lysine methyltransferases); assay: methyltransferase selectivity panel; assay type: biochemical; conditions: PRMT5 tool compounds
# Excerpt: FIG. 6: Phylogenetic tree highlighting the methyltransferases tested in the selectivity panel. […] PRMT9 is shown for relationship purposes only within the family tree and was not evaluated in the panel. Figure adapted from Richon V M. et al.
# PRMT9/FBXO11, which is the other Type II PRMT and the only PRMT to lack the THW loop, was not included due to the lack of a functional enzyme assay.
# [2] = test system: cellular splicing in lymphoma cell lines; assay: RNA-sequencing splicing analysis in lymphoma cell lines; assay type: cell-based
# Description: A. Mechanisms of regulation of cellular splicing (adapted from Bezzi M. et al.). B. Analysis of intron expression in lymphoma lines treated with 0.1 or 0.5 μM Compound B.
# A. Quantification of isoform switches in 4 lymphoma cell lines treated with Compound B (0.1 and 0.5 μM) for 2 and 4 days. B. Overlap of isoform switches in 4 lymphoma lines. C. List of genes that undergo alternative splicing in all 4 lymphoma lines (overlap of 4 cell lines).
# PRMT5 methylates histones and proteins involved in RNA processing and therefore PRMT5 inhibition is expected to have a profound effect on cellular mRNA homeostasis. To further decipher cellular mechanisms that are regulated by PRMT5 and contribute to the cellular response to PRMT5 inhibitors, global gene expression changes were evaluated in lymphoma models sensitive to PRMT5 inhibition. To elucidate gene expression changes that occur in lymphoma cell lines upon PRMT5 inhibitor treatment, 4 sensitive lymphoma lines (2 MCL lines-Z138 and Granta-519 and 2 DLBCL lines-DOHH2 and RL) were profiled by RNA-sequencing.
# Since PRMT5 methylates spliceosome subunits and PRMT5 inhibition attenuates arginine methylation of a number of proteins involved in splicing, the effect of PRMT5 inhibin on cellular splicing was studied. The changes in RNA splicing were assessed in the lymphoma RNA-seq dataset described above. […]
# [3] = test system: SDMA, MDM4 splicing, p53 in GBM and lymphoma cell lines; assay: SDMA, MDM4 splicing and p53 in GBM and lymphoma cell lines; assay type: cell-based; conditions: 1 μM
# Description: Next, effects on cellular methylation and the p53 pathway were evaluated in GBM cells treated with a PRMT5 inhibitor by measuring SDMA, p53 and p21 protein levels and MDM4 splicing (FIG. 27). […] Alternative MDM4 splicing was detected in all cell lines but SF539 which are p53 mutant and have low basal expression of the long MDM4 isoform (FIG. 27, panel A). p53 levels increased in all cell lines, while the induction of p21 protein was observed only in cell lines that have wild-type p53 (Z138 (MCL), U87-MG and A172 (GBM)). […] The role of p53 in the response of GBM cell lines to PRMT5 inhibition will be further tested in future studies. Additionally, the effects of PRMT5 inhibition on cell cycle and neural differentiation in GBM models are being explored.
# [4] = test system: SKBR3, MDA-MB-468, MCF-7, ZR-75-1 and Z-138 cells; assay: longer-term growth/death assay in breast and MCL cell lines; assay type: cell-based; conditions: SKBR3, MDA-MB-468 and MCF-7 cells, 7-10 days
# Z-138 MCL xenograft = assay: 21-day efficacy study in Z-138 MCL xenograft model; assay type: in vivo; conditions: all groups in all efficacy studies presented
# Description: B. Quantified SDMA western data from tumors harvested at the end of the efficacy study (3 hours post last dose).
# [5] = test system: MDM4 splicing, SDMA, p53 and p21 in MCL lines; assay: MDM4 splicing (RT-PCR) and SDMA/p53/p21 Western in MCL lines; assay type: cell-based; conditions: Z138 cells
# Description: To understand whether p53 activation is associated with MDM4 isoform switching, MDM4 alternative splicing was analyzed. […] The role of the p53 pathway in the biology of the response of p53 wild-type MCL cells to PRMT5 inhibition is being evaluated.
# MDA-MB-468 xenograft = assay: MDA-MB-468 triple negative breast cancer xenograft model; assay type: in vivo; conditions: 100 mg/kg BID
# Description: Next, the efficacy of PRMT5 inhibition was evaluated in in vivo models of breast cancer.
# [6] = test system: panel of cancer cell lines; assay type: cell-based; conditions: most sensitive lymphoma lines (MCL and DLBCL)
# Excerpt: (§1) DLBCL-diffuse large B-cell lymphoma, GBM-glioblastoma, MCL-mantle cell lymphoma, […]
# as §1
# The cell lines were selected to represent tumor types where PRMT5 activity has been reported to regulate key pathways and/or cell growth and survival (such as lymphoma and MCL, glioma, breast and lung cancer lines).
# MCL cell lines = assay: 6-day growth/death assay in a panel of MCL lines; assay type: cell-based; conditions: Mino, Jeko-1
# Excerpt: FIG. 18: Activity of PRMT5 inhibitor and ibrutinib as single agents and in combination in MCL cell lines. […] C.
# • The strongest mechanistic link currently described between PRMT5 and cancer is in MCL. PRMT5 is frequently overexpressed in MCL and is highly expressed in the nuclear compartment where it increases levels of histone methylation and silences a subset of tumor suppressor genes. Importantly, cyclin D1, the oncogene that is translocated in the vast majority of MCL patients, associates with PRMT5 and through a cdk4-dependent mechanism increases PRMT5 activity. PRMT5 mediates the suppression of key genes that negatively regulate DNA replication allowing for cyclin D1-dependent neoplastic growth. PRMT5 knockdown inhibits cyclin D1-dependent cell transformation causing death of tumor cells.
# [7] = test system: xenograft models of mantle cell lymphoma; assay: xenograft models of mantle cell lymphoma (summary statement); assay type: in vivo
# Excerpt: […] • The strongest mechanistic link currently described between PRMT5 and cancer is in MCL. PRMT5 is frequently overexpressed in MCL and is highly expressed in the nuclear compartment where it increases levels of histone methylation and silences a subset of tumor suppressor genes. […] The vast majority of SDMA containing proteins were factors that are involved in cellular splicing and RNA processing (SmB, Lsm4, hnRNPH1 and others), transcription (FUBP1) and translation highlighting the role of PRMT5 as an important regulator of cellular RNA homeostasis.
compound,measurement,setting,value
O=C(NC[C@H](O)CN1CCc2ccccc2C1)c1cc(NC2COC2)ncn1 [Compound E],selectivity for PRMT5/MEP50 over the other methyltransferases,[1],Selectivity for PRMT5/MEP50 over the other methyltransferases was also observed
CC(=O)N1CCC(Nc2cc(C(=O)NC[C@H](O)CN3CCc4ccccc4C3)ccn2)CC1 [Compound F],selectivity for PRMT5/MEP50 over the other methyltransferases,[1],Selectivity for PRMT5/MEP50 over the other methyltransferases was also observed
O=C(NC[C@H](O)CN1CCc2ccccc2C1)c1ccnc(NC2CCC2)c1 [Compound B],isoform switching,"[2]; 0.1 and 0.5 μM, 2 and 4 days, 4 lymphoma cell lines",induces isoform switching for a subset of genes
same,intron splicing,"[2]; 0.1 or 0.5 μM, lymphoma cell lines",attenuates the splicing of a subset of introns
same,selectivity for PRMT5/MEP50 over the other methyltransferases,[1],Selectivity for PRMT5/MEP50 over the other methyltransferases was also observed
same,MDM4 splicing,[3],induces alternative splicing of MDM4
same,SDMA levels,[3],decreases SDMA levels
same,p53 activation,[3],activates p53
same,nature of response upon prolonged exposure,[4],cytotoxic response
CC(=O)N1CCC(Nc2cc(C(=O)NC[C@H](O)CN3CCc4ccccc4C3)ncn2)CC1 [Compound C],body weight,Z-138 MCL xenograft,no body weight loss
same,nature of response upon prolonged exposure,[4],cytotoxic response
same,p53 and p21 expression,[5]; 200 nM,increased
same,Maximal tumor growth inhibition (TGI),MDA-MB-468 xenograft,83%
same,gIC50,[6],single digit
same,sensitivity in 6-day growth/death assay,MCL cell lines,only moderately sensitive
same,tumor growth inhibition (TGI),[7],~100%
"COc1ccc(C2=N[C@@H](c3ccc(Cl)cc3)[C@@H](c3ccc(Cl)cc3)N2C(=O)N2CCNC(=O)C2)c(OC(C)C)c1 [Nutlin-3, reference compound]",p53 and p21 expression,[5]; 5 μM,increased
